Measurements reported in US7129351B2, “Pyrimido compounds having antiproliferative activity” (Hoffmann-La Roche Inc., priority 2002, dated 2006).
Read-outs that look alike come from different tables or passages of the source.

Legend:
Src (p60^c-src) = target: T1, Src (p60^c-src) (Homo sapiens, UniProt P12931); test: SRC-Inhibitor-Assay (homogenous time-resolved fluorescence kinase assay); type: biochemical
T1 construct: purchased Upstate (UBI)
Protocol: The activity of the compounds according to this invention as inhibitors for the src-family tyrosine kinases was shown by using the following assay.
SRC-Inhibitor-Assay Parameters:
whereby both peptides were synthesized by an optimized solid phase peptide synthesis protocol (Merrifield (1962) Fed. Proc. Fed. Amer. Soc Exp. Biol. 21, 412) on an Zinsser SMP350 peptide synthesizer. Shortly, the peptide was assembled on 160 mg (22.8 μmol scale) of a Rink-Linker modified polystyrene solid phase by repeatedly conjugating a twenty fold excess of aminoacids each protected by temporary piperidine labile Fmoc- and permanent acid labile tert-Bu-, BOC- and O-tert-Bu-groups depending on the side chain function. The substrate sequence AEEEIYGEFEAKKKK was N-terminal additionally mounted with the spacer amino acids Aminocaprylic acid and Glycin. After cleavage of the N-terminal temporary protecting group the still attached and protected peptide was labeled with a 1.5 fold amount of LightCycler-Red 640-N-hydroxy succinimide ester (purchased from Roche Diagnostics GmbH) and triethylamine. After 3 hrs. the resin was washed with dimethylformamide and isopropanol until the eluates of the blue resin got colourless. […] The substrate was finally isolated by a preparative reverse phase HPLC purification. The purification yielded 12.2 mg RP-HPLC single peak pure blue material (lyophilisate). The identity was proven by MALDI mass spectroscopy [2720.0]. • Enzymes: Upstate Lck (p56^lck, active), Upstate Src (p60^c-src, partially purified) were purchased from UBI. • Homogenous, time-resolved Fluorescence Assay: Reader: Perkin Elmer, Wallac Viktor 1420-040 multilabel counter; Liquid handling system: Beckman Coulter, Biomek 2000. • ATP, Tween 20, HEPES were purchased from Roche Molecular Biochemicals, MgCl2 and MnCl2 were purchased from Merck Eurolab, TCEP was purchased from Pierce, 384 Well low volume fluorescence plates was purchased from Falcon. Assay Description:
At first the enzyme is pre-incubated for 15 min. at 15° C. in aqueous solution with corresponding amounts of inhibitors according to this invention. Then the phosphorylation reaction is started by adding a reaction mixture, containing ATP, Peptide and PT66, and subsequent shaking. The proceeding of this reaction is immediately monitored using time resolved fluorescence spectroscopy in a suitable well plate reader.
The IC50-values can be obtained from the reaction rates by using a non-linear curve fit (Excelfit).

[1] = ATP 5 μM, enzyme 2.5 U/mL, pre-incubated 15 min at 15° C., read-out: IC50 (μM) - Enzyme Inhibition Assay, Src

T1 sequence (P12931 whole entry): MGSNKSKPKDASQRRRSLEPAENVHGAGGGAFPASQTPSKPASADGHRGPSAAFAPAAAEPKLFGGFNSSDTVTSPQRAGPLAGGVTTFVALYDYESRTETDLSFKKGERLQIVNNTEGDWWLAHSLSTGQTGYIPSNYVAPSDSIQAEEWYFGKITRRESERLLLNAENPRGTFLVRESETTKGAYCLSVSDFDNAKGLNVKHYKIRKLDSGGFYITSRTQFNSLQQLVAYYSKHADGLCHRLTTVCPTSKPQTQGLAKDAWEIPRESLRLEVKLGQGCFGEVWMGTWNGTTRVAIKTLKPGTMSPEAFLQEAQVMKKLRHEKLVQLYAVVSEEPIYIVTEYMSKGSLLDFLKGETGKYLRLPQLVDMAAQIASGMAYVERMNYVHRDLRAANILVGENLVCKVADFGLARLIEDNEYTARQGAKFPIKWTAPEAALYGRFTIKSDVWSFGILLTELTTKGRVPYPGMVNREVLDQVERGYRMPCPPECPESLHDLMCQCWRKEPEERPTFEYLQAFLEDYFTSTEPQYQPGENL

COc1ccc(N2C(=O)N(c3cccc(C#N)c3)c3nc(Nc4cccc(CCO)c4)ncc3C2C)cc1 (racemic) [Example 4, (±)-3-[7-[3-(2-hydroxy-ethyl)-phenylamino]-3-(4-methoxy-phenyl)-4-methyl-2-oxo-3,4-dihydro-2H-pyrimido[4,5-d]pyrimidin-1-yl]-benzonitrile]
IC50 (Src (p60^c-src); [1]): < 1 µM | melting point: 195 to 200 °C

CCN(CC)CCc1cccc(Nc2ncc3c(n2)N(c2cccc(C#N)c2)C(=O)N(c2ccc(OC)cc2)C3C)c1 (racemic) [Example 5b, (±)-3-[7-[3-(2-diethylamino-ethyl)-phenylamino]-3-(4-methoxy-phenyl)-4-methyl-2-oxo-3,4-dihydro-2H-pyrimido[4,5-d]pyrimidin-1-yl]-benzonitrile]
IC50 (Src (p60^c-src); [1]): < 1 µM | melting point: 128 to 145 °C

COc1ccc(N2C(=O)N(c3cccc(C#N)c3)c3nc(Nc4cccc(CCN(C)C)c4)ncc3C2C)cc1 (racemic) [Example 6, (±)-3-[7-[3-(2-dimethylamino-ethyl)-phenylamino]-3-(4-methoxy-phenyl)-4-methyl-2-oxo-3,4-dihydro-2H-pyrimido[4,5-d]pyrimidin-1-yl]-benzonitrile]
IC50 (Src (p60^c-src); [1]): < 1 µM | melting point: 120 to 135 °C

COc1ccc(N2C(=O)N(c3cccc(C#N)c3)c3nc(Nc4cccc(CCN5CCN(C)CC5)c4)ncc3C2C)cc1 (racemic) [Example 7, (±)-3-(3-(4-methoxy-phenyl)-4-methyl-7-{3-[2-(4-methyl-piperazin-1-yl)-ethyl]-phenylamino}-2-oxo-3,4-dihydro-2H-pyrimido[4,5-d]pyrimidin-1-yl)-benzonitrile]
IC50 (Src (p60^c-src); [1]): < 1 µM | melting point: 134 to 155 °C

CCN(CC)CCc1cccc(Nc2ncc3c(n2)N(c2cccc(C(N)=O)c2)C(=O)N(c2ccc(OC)cc2)C3C)c1 (racemic) [Example 8, (±)-3-[7-[3-(2-diethylamino-ethyl)-phenylamino]-3-(4-methoxy-phenyl)-4-methyl-2-oxo-3,4-dihydro-2H-pyrimido[4,5-d]pyrimidin-1-yl]-benzamide]
IC50 (Src (p60^c-src); [1]): < 1 µM | IC50 (Src (p60^c-src); printed at the end of the Example 8 characterisation data, kinase not named at that place, read-out: IC50): 0.0045 µM | melting point: 170 to 175 °C

COc1ccc(N2C(=O)N(c3cccc(C(N)=O)c3)c3nc(Nc4cccc(CCN(C)C)c4)ncc3C2C)cc1 (racemic) [Example 9, (±)-3-[7-[3-(2-dimethylamino-ethyl)-phenylamino]-3-(4-methoxy-phenyl)-4-methyl-2-oxo-3,4-dihydro-2H-pyrimido[4,5-d]pyrimidin-1-yl]-benzamide]
IC50 (Src (p60^c-src); [1]): < 1 µM | melting point: 215 to 230 °C

COc1ccc(N2C(=O)N(c3cccc(C(N)=O)c3)c3nc(Nc4cccc(CCN5CCN(C)CC5)c4)ncc3C2C)cc1 (racemic) [Example 10, (±)-3-(3-(4-methoxy-phenyl)-4-methyl-7-{3-[2-(4-methyl-piperazin-1-yl)-ethyl]-phenylamino}-2-oxo-3,4-dihydro-2H-pyrimido[4,5-d]pyrimidin-1-yl)-benzamide]
IC50 (Src (p60^c-src); [1]): < 1 µM | melting point: 243 to 251 °C
